Reference: patent publication US10568897B2, “Bidens pilosa and polyacetylenic compounds for prevention and treatment of coccidiosis” (ACADEMIA SINICA, priority 2011, dated 2020)

Test system: E. tenella
Test: Eimeria infection (coccidiosis) in chickens: survival, body weight, clinical symptoms, gut lesions, excreted oocysts
Assay type: in vivo
Conditions: for Body weight Day 21: diet with 6 mg/kg maduramicin or 50 g/kg BPP for 7 days, 6 mg/kg
Description: FIGS. 3 A-F show the effect of BPP on the survival rate (FIG. 3A), sick bird appearance (FIG. 3B) and clinical symptoms (FIG. 3C) in the chickens. One-day-old chickens were fed with control diet for 14 days. On day 14, the birds were infected with vehicle (CTR) or E. tenella (ET) and fed with control diet (CTR and ET groups) and the diet containing 6 mg/kg maduramicin (ET+Mad), or 5%, or 1%, or 0.5% of BPP (ET+BPP) for additional 7 days. After the birds were sacrificed, the cecum was dissected and fixed for hematoxylin and eosin Y staining. The representative images of cecal hemorrhagic lesions (FIG. 3D) and histopathology (FIG. 3E) are shown.
One-d-old Lohmann broiler chicks hatched at Taichung Hatchery (Taiwan) were wing-banded upon arrival, weighed, and randomly placed in Petersime starter brooder units. At 1 and 2 d post-hatch, the birds were given free access to water and diets. The diets were formulated by mixing the base diet (Chicken feed, Taiwan Sugar Corporation) with carrier alone (control diet) or the indicated dose of B. pilosa power (BPP diet). In case of cytopiloyne experiments, the animal was administered with 45 μg of isolated cytopiloyne each day. After grouping, birds were tube-fed with Eimeria oocysts. Growth performance (body weight and feed conversion), pathology (bloody droppings and gut morphometry) and survival rate were measured and examined. All birds were maintained in the institutional animal facility and handled according to the guidelines of the Academia Sinica Institutional Animal Care and Utilization Committee.
Since B. pilosa was claimed to treat protozoan and bacterial infections, we tested whether B. pilosa could protect the chickens from coccidiosis. To this end, we infected the […] birds with vehicle and Eimeria oocysts. The birds were given control diet, the control diet mixed with maduramicin, a commercial anti-coccidial, and 10% BPP diet. […] In contrast, 60% of the birds with Eimeria infection survived 7 days post-infection (FIG. 3A). However, treatment with a dose (6 mg/k) of maduramicin and a dose (50 g/kg) of […] BPP increased the survival rate of the birds with Eimeria infection by 30% (FIG. 3A). […] However, treatment with maduramicin and BPP increased body weight from 132.5 g to 145.4 g and 154.3 g. respectively (Table 2). […] One-d-old chickens were fed with control diet for 14 days. On day 14, the birds were infected with vehicle (CTR) or E. tenella (ET) and fed with control diet (CTR and ET groups) and the diet containing 6 mg/kg maduramicin (ET+Mad) or 50 g/kg BPP (E+T BPP) for additional 7 days. Body weight was measured. The number of the birds in each group is indicated in the parentheses.
Next, we checked clinical symptoms of the chickens with or without Eimeria infection. […] In contrast, the birds with Eimeria infection show the typical sick bird appearances (FIG. 3B). […] In contrast, treatment with maduramicin or BPP reduced bloody droppings and diarrhea (FIG. 3C).
The gut lesions of the birds 7 days post-infection were also examined. Hemorrhagic lesions in the cecum of the birds infected with Eimeria oocysts were observed (FIG. 3D). In contrast, treatment with maduramicin and BPP alleviated the severity of hemorrhagic lesions (FIG. 3D).
The excretion of oocysts is an important indicator of the efficacy of anti-coccidial drug. Thus, we assessed the number of excreted oocysts from the chickens with Eimeria infection. […] The data on the effect of BPP on the reduction of the excreted oocysts are consistent with the alleviation of the clinical symptoms by BPP. […] One-d-old chickens were fed with control diet for 14 days. On day 14, the birds were infected with vehicle (CTR) or E. tenella (ET) and fed with control diet (CTR and ET groups) and the diet containing 6 mg/kg maduramicin (ET+Mad) or 50 g/kg BPP (ET+BPP) for additional 7 days. The number of the excreted oocysts in the feces (oocysts per gram) of the birds was determined. […]

[1] = E. tenella infected on day 14, diet with 6 mg/kg maduramicin or 50 g/kg BPP
[2] = Eimeria infected birds given diet with maduramicin or BPP

CO[C@@H]1[C@@H](OC)[C@H](C)[C@@](O)(CC(=O)O)O[C@H]1[C@H](C)[C@H]1O[C@@]2(CC[C@@](C)([C@H]3CC[C@@](C)([C@@H]4O[C@@H]([C@H]5O[C@](C)(O)[C@H](C)C[C@@H]5C)C[C@@H]4O[C@@H]4C[C@H](OC)[C@@H](OC)[C@H](C)O4)O3)O2)C[C@H](O)[C@H]1C [maduramicin, Maduramicin]
Number of the excreted oocysts in the infected birds (6 mg/kg maduramicin or 50 g/kg BPP diet): reduced half | Severity of hemorrhagic lesions in the cecum (7 days post-infection): alleviated | Number of villi and depth of crypts in the gut (7 days post-infection, histostaining): increased | Excreted oocysts in the feces Day 4 [1]: 5 ± 0.3 oocysts per gram | Excreted oocysts in the feces Day 5 [1]: 78 ± 3.8 oocysts per gram | Excreted oocysts in the feces Day 6 [1]: 187 ± 4.7 oocysts per gram | Excreted oocysts in the feces Day 7 [1]: 343 ± 52.2 oocysts per gram | Body weight Day 21 (E. tenella infected on day 14): 145.4 g | Body weight Day 21 (E. tenella infected on day 14, listed as Mad): 145.4 ± 6.2 g | Bloody droppings and diarrhea [2]: reduced | Sick bird appearance (droopiness, listlessness, ruffled feather) [2]: no obvious sick bird appearance
